Assay results from PubChem BioAssay AID2740 (NMMLSC, 2010).
Activity calls are given as the source filed them.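 Rule for the calls: active = compounds whose fitted half-maximal concentration for changing the GFP signal is at or below a set limit; inactive = the rest.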

Experiment: TOR pathway RPL19A-GFP modulators, concentration series – cell-based, S. cerevisiae, flow cytometry, MLPCN hits, dose response (AID 2740);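 note: background is signal of the same compound in parental non-GFP s288c yeast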
Conditions: S. cerevisiae RPL19A-GFP strain, flow cytometry fluorescence, 3 h; at 33 µM (top of the series)

Row | SMILES | GFP fluorescence, lower = active (kMESF (background-subtracted))
1 | CCCc1cc(=O)oc2cc(C)cc(OCC(=O)NC3CC3)c12 | 39 (inactive)
2 | N/C(Cc1ccc(Cl)cc1)=N\OC(=O)c1cccc2ccccc12 | 45.3 (inactive)
3 | CCc1sc(C(=O)Nc2nc(-c3ccccn3)cs2)cc1C | 21.1 (inactive)
4 | O=c1c(-c2ccc(Cl)cc2)[n+]([O-])c2ccccc2n1O | 30.9 (inactive)
5 | C/C(=N\Nc1ncnc2sc(C)c(C)c12)c1ccccn1 | -2.55 (inactive)
6 | O=C(Oc1oc(-c2ccco2)nc1C=Nc1ccccc1)c1ccco1 | 38.5 (inactive)
7 | O=c1oc2ccccc2c(O)c1[C@H]1c2ccc(O)cc2Oc2c1c(=O)oc1ccccc21 | 34.8 (inactive)
8 | CCCN1CCc2c(sc(NC(=S)NC(=O)c3ccccc3)c2C#N)C1 | 47.6 (inactive)
9 | CN(C)c1ccc(N=Cc2nc(-c3ccccc3)oc2OC(=O)c2cccc(Cl)c2)cc1 | 44.1 (inactive)
10 | COc1cc(C=C2C(=O)c3ccccc3C2=O)cc(OC)c1OC | 43.2 (inactive)
11 | COc1cccc2c(=O)c(C(=O)NCc3cccs3)c[nH]c12 | 40.5 (inactive)
12 | Oc1ccc(COCc2ccccc2)c2cccnc12 | 46.5 (inactive)
13 | O=C1c2cccc3c([N+](=O)[O-])ccc(c23)C(=O)N1O | 49.9 (inactive)
14 | O=C(Cc1ccc(Cl)cc1)NNC(=S)NC(=O)c1cccs1 | 45.9 (inactive)
15 | Cc1ccccc1[C@@]1(C)ON(c2ccccc2C(F)(F)F)C1=O | 40.6 (inactive)
16 | COc1ccc(C(c2c(C)[nH]n(C(N)=S)c2=O)C(C#N)C#N)cc1 (centres undefined) | 24.7 (inactive)
17 | O=C1Nc2ccc(Br)cc2/C1=C/C(=O)c1ccc2c(c1)OCO2 | 40.6 (inactive)
18 | COc1ccc(NC2=C(Cl)C(=O)N(CCc3ccccc3)C2=O)c(OC)c1 | 39.1 (inactive)
19 | CC(=O)[C@]1(O)Cc2c(O)c3c(c(O)c2[C@@H](O[C@H]2C[C@H](N)[C@H](O)[C@H](C)O2)C1)C(=O)c1ccccc1C3=O | 42 (inactive)
20 | CCCCc1ccc(NC(=O)CC(C)=O)cc1 | 47.2 (inactive)

Row | SMILES | GFP fluorescence, lower = active (kMESF (background-subtracted))
21 | c1ccc(-c2cccc(-c3ccccn3)n2)nc1 | 36.2 (inactive)
22 | Oc1c(I)cc(I)c2cccnc12 | 23 (inactive)
23 | O=C(COc1ccc(F)cc1Cl)Nc1nc(-c2ccccn2)cs1 | 35.8 (inactive)
24 | COc1ccccc1[C@]1(C)ON(c2ccccc2C(F)(F)F)C1=O | 30.8 (inactive)
25 | O=S(=O)(CCN(CCS(=O)(=O)C(F)(F)F)CC1CCCO1)C(F)(F)F (centres undefined) | 27.1 (inactive)
26 | CCN1/C(=C/C=C/c2sc3ccccc3[n+]2CC)Sc2ccccc21 | 31.9 (inactive)
27 | O=c1oc(/C=C/c2ccc([N+](=O)[O-])s2)nc2ccccc12 | 55 (inactive)
28 | CCN(CC(=O)Nc1cc(S(=O)(=O)N2CCOCC2)ccc1Cl)Cc1ccccc1 | 43.2 (inactive)
29 | COC(=O)CCS(=O)(=O)c1nc(-c2ccccc2)cc(C(F)(F)F)n1 | 37.3 (inactive)
30 | C=CCn1c(C)c(/C=C/c2cc[n+](C)cc2)c2ccccc21 | 52.8 (inactive)
31 | CCCc1cc(N2CCN(c3ccccn3)CC2)n2nc(C)c(-c3ccccc3)c2n1 | 38.1 (inactive)
32 | O=C(O)C1Sc2[nH]c(=O)sc2C2c3cc(Br)ccc3OC(=O)C12 (centres undefined) | 37.8 (inactive)
33 | Cc1c(NC2=C(Cl)C(=O)N(c3ccccc3Cl)C2=O)c(=O)n(-c2ccccc2)n1C | 38.7 (inactive)
34 | COc1ccc([C@]2(C(C)C)ON(c3ccccc3C(F)(F)F)C2=O)cc1 | 46 (inactive)
35 | COc1ccc(C2=CC3=C(Br)C(=O)C(C)(O)C(=O)C3=CO2)cc1 (centres undefined) | 1.92 (inactive)
36 | O=C(O)/C=C/C(=O)c1ccc2c(c1)CCc1ccccc1-2 | 16.8 (inactive)
37 | O=C(c1ccccc1)c1ccccc1N1C(=O)C=CC1=O | 26 (inactive)
38 | Cc1ccc2c(c1)c(/C=C/c1cc[n+](C)cc1)c(C)n2C | 40.7 (inactive)
39 | COc1ccc(CCNC2=C(Cl)C(=O)N(CCc3ccccc3)C2=O)cc1OC | 40 (inactive)
40 | O=C(OCn1ncc(Br)c(Br)c1=O)c1c(F)cccc1F | 37.9 (inactive)

Row | SMILES | GFP fluorescence, lower = active (kMESF (background-subtracted))
41 | CC(=O)Oc1cccc(N2C(=O)c3cccc4c([N+](=O)[O-])ccc(c34)C2=O)c1 | 39.5 (inactive)
42 | Cc1cccnc1Nc1nc(-c2ccccn2)cs1 | 33.3 (inactive)
43 | COc1ccc(/C=C/C(=O)C2C(=O)C=C(C)OC2=O)cc1O (centres undefined) | 39 (inactive)
44 | Cc1c(N2C(=O)/C(=C\c3ccccc3O)SC2=S)c(=O)n(-c2ccccc2)n1C | 38.7 (inactive)
45 | O=C(Oc1ccnc2cc(Cl)ccc12)N1CCCCCC1 | 25.6 (inactive)
46 | C=CCOc1ccc(C(=O)/C=C2/C(=O)Nc3ccccc32)cc1 | 37.9 (inactive)
47 | COc1ccc(-c2cc3nc4n(c(=O)c3s2)CCC4)cc1 | 21.6 (inactive)
48 | Cc1cc(NC(c2ccc(Cl)cc2)c2ccc3cccnc3c2O)no1 (centres undefined) | 39.3 (inactive)
49 | Oc1ccc(CNc2ccccc2)c2cccnc12 | 42.2 (inactive)
50 | O=C1C=C(c2ccc(Cl)cc2)C(=O)N1Nc1ccccc1 | 18.7 (inactive)
51 | COc1ccccc1C(=O)NNC(=S)NC(=O)c1ccco1 | 35.5 (inactive)
52 | Cc1ccc(C(=O)O/N=C(\N)Cc2cccs2)c(Cl)c1 | 38.5 (inactive)
53 | COc1ccc(N=Cc2nc(-c3ccccc3)oc2OC(=O)c2ccccc2)cc1 | 46.2 (inactive)
54 | CCc1cc(C(=O)Nc2nc(-c3ccccn3)cs2)sc1C | 23.7 (inactive)
55 | Oc1ccc(Br)cc1/C=N/Nc1ccccn1 | 40.5 (inactive)
56 | CCOC(=O)CSC1=NC(=O)/C(=C\c2ccc(Cl)cc2)S1 | 31.9 (inactive)
57 | O=C(CCc1ccccc1)NNC(=S)NC(=O)c1ccccc1 | 44.5 (inactive)
58 | Oc1cc(-c2ccc(N3CCCCC3)nc2)cc2cccnc12 | 46.1 (inactive)
59 | O=C(COc1c(Br)cc(Br)c2cccnc12)N1CCc2ccccc2C1 | 45.4 (inactive)
